The results in this text go back to US4657911A, “3-amino quinuclidine derivatives and the application thereof as accelerators of gastro-intestinal motor function” (Delalande S.A., priority 1982, dated 1987).

The test system of series [1] is total transit. Kind of series: total transit test in rats. Type of series: in vivo. The following applies: Rattus norvegicus, po, read-out: % animals having completely evacuated the balls after 24 hours; for responders at 10 mg/kg: dose 10 mg/kg p.o. The procedure: by the total transit test in rats, carried out according to the following method: The compounds of the invention were administered orally simultaneously with 20 steel balls to wakeful rats having eaten nothing for 20 hours. The fast was broken immediately after the administration and the compounds of the invention were administered a second time at the same dose after a period of 7 hours. The total transit was evaluated 24 hours after the first administration of the compounds to be tested by the percentage of the animals having evacuated all the balls in the faeces, the balls being counted by radiological examination.

Series [2] in a line: acute toxicity in mice, method of MILLER and TAINTER. The note with it: mouse, in vivo, ip. Here is the method: In addition, the acute toxicity in mice was evaluated according to the method of MILLER and TAINTER described in Proc. Soc. Exp. Biol. Med. 57 261 (1944).
The subject of series [3] is gastric evacuation. The experiment in a line: gastric evacuation test on rats. In kind it is in vivo. The following applies: rats fasted 20 hours, 20 steel balls. Here is the method: by the gastric evacuation test on rats, carried out with the following method: The compounds of the invention are administered orally together with 20 steel balls to wakeful rats having eaten nothing for 20 hours. The action on the gastric evacuation of the tested compounds was evaluated 90 minutes after administration thereof by the percentage of animals whose stomach contained no balls, these balls being counted by radiological examination.

[4] abbreviates: rats, dose 1 mg/kg p.o., second administration at same dose after 7 hours, 24 hours.
[5] abbreviates: rats, second administration at same dose after 7 hours, 24 hours.

Structures are written as SMILES. Where a name gives a salt, the structure may show the parent alone. Read-outs that look alike come from different tables or passages of the source.

As to `COc1cc(N)c(Cl)cc1C(=S)N(C)C1CN2CCC1CC2` (stereo not shown) [compound 25], the responders at 1 mg/kg in series [1] (setting [4]) turned out to be 44%. The molecule also registered an LD50 in series [2] (Table III) of 80 mg/kg.

On to `O=C(NC1CN2CCC1CC2)c1ccccc1F` (stereo not shown) [compound 6], for which, in series [1] (setting [5]), the responders at 10 mg/kg was found to be 55%. Further, the LD50 in series [2] (Table III) was determined as 150 mg/kg.

Regarding `COc1ccccc1C(=O)NC1CN2CCC1CC2` (stereo not shown) [compound 7], in series [1] (setting [5]), the responders at 10 mg/kg is 50%. In series [2] (Table III), this molecule returned an LD50 of 150 mg/kg.

For `COc1cc(N)c(Cl)cc1C(=S)NC1CN2CCC1CC2` (stereo not shown) [compound 22], the responders at 1 mg/kg in series [1] (setting [4]) was 63%. In series [2] (Table III), the LD50 was found to be 300 mg/kg.

Turning to `COc1ccc(F)cc1C(=O)NC1CN2CCC1CC2` (stereo not shown) [compound 17], in series [1] (setting [4]), the responders at 1 mg/kg is 57%. Moreover, the LD50 in series [2] (Table III) was 140 mg/kg.

Turning to `COc1cc(N)c(Cl)cc1C(=O)NC1CN2CCC1CC2` (stereo not shown) [Code number 2, N-(3-quinuclidinyl)4-amino 5-chloro 2-methoxy benzamide, maleate], in series [1] (setting [4]), the responders at 1 mg/kg is 64%. Besides, the “% animals whose stomach contained no ball after 90 minutes” value in series [3] (dose 5 mg/kg p.o.) was 75%; in series [3] (dose 10 mg/kg p.o.), 100%. Besides, the LD50 in series [2] (Table II) is 105 mg/kg.

On to `O=C(NC1CN2CCC1CC2)c1cccc(Cl)c1` (stereo not shown) [compound 20], for which, in series [1] (setting [4]), the responders at 1 mg/kg was 50%. Moreover, in series [2] (Table III), the LD50 worked out at 145 mg/kg.

In the case of `O=C(NC1CN2CCC1CC2)c1cccc(F)c1` (stereo not shown) [Code number 5, N-(3-quinuclidinyl)3-fluoro benzamide, oxalate], in series [3] (dose 2.5 mg/kg p.o.), the “% animals whose stomach contained no ball after 90 minutes” value is given as 100%. Moreover, the LD50 in series [2] (Table II) worked out at 140 mg/kg.

`COc1nc(N)ncc1C(=O)NC1CN2CCC1CC2` (stereo not shown) [Code number 1]: the responders at 10 mg/kg in series [1] (setting [5]) was found to be 50%. The LD50 in series [2] (Table III) was 300 mg/kg.

`COc1cc(NC(C)=O)c(Cl)cc1C(=O)N(C)C1CN2CCC1CC2` (stereo not shown) [compound 23]: the responders at 1 mg/kg in series [1] (setting [4]) was 38%. Further, in series [2] (Table III), the 50% lethal dose (LD50) was found to be 50 mg/kg.

Consider `COc1ccc(Br)cc1C(=O)NC1CN2CCC1CC2` (stereo not shown) [compound 18], for which the responders at 1 mg/kg in series [1] (24 h) is 38%. The molecule further showed an LD50 in series [2] (Table III) of 160 mg/kg.

For the molecule `COc1cccc(C(=O)NC2CN3CCC2CC3)c1` (stereo not shown) [Code number 3], the “% animals whose stomach contained no ball after 90 minutes” value in series [3] (dose 2.5 mg/kg p.o.) came out at 100%. The molecule also yielded an LD50 in series [2] (Table II) of 110 mg/kg.

With `COc1cc(N)c(Cl)cc1C(=O)N(C)C1CN2CCC1CC2` (stereo not shown) [compound 24], in series [1] (setting [4]), the responders at 1 mg/kg is 38%. The LD50 in series [2] (Table III) worked out at 70 mg/kg.
